Data from US20250179049A1, “SALTS OF HETEROCYCLIC INHIBITORS OF MONOCARBOXYLATE TRANSPORTER 4 FOR THE TREATMENT OF DISEASE” (Vettore, LLC, priority 2022, published 2025).
Counter-ions that a name gives are not always drawn. Like-named read-outs stand apart in the source and are kept apart here.

Tests used:
[1] = in vivo; design: species or system beagle dogs; details: both sexes, beagle, dog, 150 mg/kg
Procedure: Compound 1 was administered to beagle dogs by oral gavage in a range finding study at doses of 30, 79, 240, or 790 mg/kg. […] Compound 1 was administered at doses of 10, 50, and 150 mg/kg/day in the pivotal repeat dose toxicity studies for 28 days.
Compound 1 tris salt was evaluated for safety in 7- and 28-day studies in rats and dogs. […] The NOAELs for this rat study were 120 mg/kg/day for males and 75 mg/kg/day for females. […] The NOAEL determined in the 28-day dog GLP study was 150 mg/kg/day. These correspond to human equivalent doses (HEDs) of: • Rat: 75 mg/kg×0.16=12 mg/kg • Dog: 150 mg/kg×0.54=81 mg/kg

[2] = Rat pharmacokinetics, oral gavage; assay type: in vivo, Sprague-Dawley rats; design: AUClast/D: unit not given here; details: for MRT inf: read-out: MRTInf—obs; for AUC(0-t) / Cmax / Tmax / AUC0-24 salt/ AUC0-24 free/ / AUC0-24: rat
Procedure: Groups, Dosing, and Collection. […] Three rats per group were perorally administered 20, 60, or 200 mg Compound 1 free acid or 25, 75, or 250 mg in 0.5% methylcellulose in Saline for a final concentration of 2, 6, or 20 mg/mL Compound 1 free acid or 2.5, 7.5, or […]. Plasma was collected at 5 min, 15 min, 30 min, 1 hour, 2 hour, 4 hour, 6 hour, 8 hour, and 24 hour post dose via jugular vein.
Stock and Dose Prep. Stock solutions were prepared by dissolving 2.47 mg of Compound 1 (free acid) in 2.470 mL DMSO with vortexing to obtain 1 mg/mL solution of Compound 1 (free acid), or 2.09 mg of Compound 1 (Tris salt) in […] DMSO with vortexing to obtain 1 mg/mL solution of Compound 1 (Tris salt). Dosing solutions were prepared by vortexing/sonicating the following solids in solvent:
LC MS-MS Analysis. Liquid Chromatography with tandem mass spectrometry was used to determine plasma concentrations of Compound 1 Free Acid and Compound 1 Tris Salt in plasma samples collected at prescribed time points.
Appropriate serial concentrations of working solutions were achieved by diluting stock solution of analyte with 50% acetonitrile in water solution. Five μL of working solutions (10, 20, 50, 100, 500, 1000, 5000, 8000, 10000 ng/mL) were added to 50 μL of the blank male SD Rat plasma to achieve calibration standards of 1˜1000 ng/ml (1, 2, 5, 10, 50, 100, 500, 800, 1000 ng/mL) in a total volume of 55 μL. Five quality control (QC) samples at 2 ng/mL, 5 ng/mL, 10 ng/mL, 50 ng/mL and 800 ng/mL for plasma were prepared independently of those used for the calibration curves. These QC samples were prepared on the day of analysis in the same way as calibration standards. 55 μL standards, 55 μL QC samples and 55 μL unknown samples (50 μL plasma/blood with 5 μL blank solution) were added to 200 μL of methanol containing internal standard (dexamethasone) mixture for precipitating protein respectively, and vortexed for 30 seconds. After centrifugation at 4° C. and 4000 rpm for 15 minutes. The supernatant was diluted with water with a ratio of 1:2. 2 μL of the supernatant was injected into the LC/MS/MS system for quantitative analysis.
Instrumentation included HALO 90A C18 2.7 μm 2.1×50 mm HPLC column, a Prominence degasser DGU-20A5R(C), liquid chromatograph Shimadzu LC-30AD with communications bus module CBM-20A and Auto SIL-20AC HT; and an AB Sciex Triple Quad 5500 LC/MS/MS instrument.

[3] = Sprague-Dawley, plasma, rat PO 25 mg/kg, female, mean
[4] = Sprague-Dawley, plasma, rat PO 25 mg/kg, male, mean
[5] = Sprague-Dawley, plasma, rat PO 75 mg/kg, female, mean
[6] = Sprague-Dawley, plasma, rat PO 75 mg/kg, male, mean
[7] = Sprague-Dawley, plasma, rat PO 250 mg/kg, female, mean
[8] = Sprague-Dawley, plasma, rat PO 250 mg/kg, male, mean
[9] = Female, PO/20 mg/kg, Mean ± SD, 20 mg/kg
[10] = Female, PO/60 mg/kg, Mean ± SD, 60 mg/kg
[11] = Female, PO/200 mg/kg, Mean ± SD, 200 mg/kg

CC(C)(OCc1cc(-c2cccc(OC3CCC3)c2)n(-c2ccccc2N2CCC2)n1)C(=O)O [Compound 1 tris salt, tris salt of 2-((1-(2-(azetidin-1-yl)phenyl)-5-(3-cyclobutoxyphenyl)-1H-pyrazol-3-yl)methoxy)-2-methylpropanoic acid]
Human equivalent dose of NOAEL at 28 days [1]: 81 mg/kg | AUC(0-inf) [2, 3]: 1040 µg·h/mL | half-life [2, 3]: 392 min | MRT inf [2, 3]: 9.9 h | AUC(0-inf) [2, 4]: 357 µg·h/mL | half-life [2, 4]: 194 min | MRT inf [2, 4]: 6.1 h | AUC(0-inf) [2, 5]: 3270 µg·h/mL | half-life [2, 5]: 576 min | MRT inf [2, 5]: 14.7 h | AUC(0-inf) [2, 6]: 910 µg·h/mL | half-life [2, 6]: 175 min | MRT inf [2, 6]: 6.03 h | AUC(0-inf) [2, 7]: 16300 µg·h/mL | half-life [2, 7]: 2430 min | MRT inf [2, 7]: 62 h | AUC(0-inf) [2, 8]: 2890 µg·h/mL | half-life [2, 8]: 732 min | MRT inf [2, 8]: 18.6 h | AUC(0-t) ([2]; female, Sprague-Dawley, plasma, po, 25 mg/kg, rat PO 25 mg/kg, female, mean, read-out: AUClast): 947 µg·h/mL | Cmax ([2]; female, Sprague-Dawley, plasma, po, 25 mg/kg, rat PO 25 mg/kg, female, mean, read-out: Cmax): 68.6 µg/mL | Tmax ([2]; female, Sprague-Dawley, plasma, po, 25 mg/kg, rat PO 25 mg/kg, female, mean, read-out: Tmax): 6 h | AUC(0-t) ([2]; female, Sprague-Dawley, plasma, po, 75 mg/kg, rat PO 75 mg/kg, female, mean, read-out: AUClast): 2540 µg·h/mL | Cmax ([2]; female, Sprague-Dawley, plasma, po, 75 mg/kg, rat PO 75 mg/kg, female, mean, read-out: Cmax): 171 µg/mL | Tmax ([2]; female, Sprague-Dawley, plasma, po, 75 mg/kg, rat PO 75 mg/kg, female, mean, read-out: Tmax): 5.33 h | AUC(0-t) ([2]; female, Sprague-Dawley, plasma, po, 250 mg/kg, rat PO 250 mg/kg, female, mean, read-out: AUClast): 4470 µg·h/mL | Cmax ([2]; female, Sprague-Dawley, plasma, po, 250 mg/kg, rat PO 250 mg/kg, female, mean, read-out: Cmax): 223 µg/mL | Tmax ([2]; female, Sprague-Dawley, plasma, po, 250 mg/kg, rat PO 250 mg/kg, female, mean, read-out: Tmax): 6.67 h | Total drug exposure across time (AUClast and AUCInf) compared with free acid ([2]; male and female rats): higher | AUC(0-t) ([2]; male, Sprague-Dawley, plasma, po, 25 mg/kg, rat PO 25 mg/kg, male, mean, read-out: AUClast): 352 µg·h/mL | Cmax ([2]; male, Sprague-Dawley, plasma, po, 25 mg/kg, rat PO 25 mg/kg, male, mean, read-out: Cmax): 44.2 µg/mL | Tmax ([2]; male, Sprague-Dawley, plasma, po, 25 mg/kg, rat PO 25 mg/kg, male, mean, read-out: Tmax): 2.86 h | AUC(0-t) ([2]; male, Sprague-Dawley, plasma, po, 25 mg/kg, Male, PO/25 mg/kg, Mean ± SD, read-out: AUC0-24): 352 µg·h/mL | Cmax ([2]; male, Sprague-Dawley, plasma, po, 25 mg/kg, Male, PO/25 mg/kg, Mean ± SD, read-out: Cmax): 44.2 µg/mL | Tmax ([2]; male, Sprague-Dawley, plasma, po, 25 mg/kg, Male, PO/25 mg/kg, Mean ± SD, read-out: Tmax): 2.9 ± 4.5 h | AUC(0-t) ([2]; male, Sprague-Dawley, plasma, po, 75 mg/kg, rat PO 75 mg/kg, male, mean, read-out: AUClast): 906 µg·h/mL | Cmax ([2]; male, Sprague-Dawley, plasma, po, 75 mg/kg, rat PO 75 mg/kg, male, mean, read-out: Cmax): 92.3 µg/mL | Tmax ([2]; male, Sprague-Dawley, plasma, po, 75 mg/kg, rat PO 75 mg/kg, male, mean, read-out: Tmax): 4 h | AUC(0-t) ([2]; male, Sprague-Dawley, plasma, po, 75 mg/kg, Male, PO/75 mg/kg, Mean ± SD, read-out: AUC0-24): 906 µg·h/mL | Cmax ([2]; male, Sprague-Dawley, plasma, po, 75 mg/kg, Male, PO/75 mg/kg, Mean ± SD, read-out: Cmax): 92.3 µg/mL | Tmax ([2]; male, Sprague-Dawley, plasma, po, 75 mg/kg, Male, PO/75 mg/kg, Mean ± SD, read-out: Tmax): 4 ± 2 h | AUC(0-t) ([2]; male, Sprague-Dawley, plasma, po, 250 mg/kg, rat PO 250 mg/kg, male, mean, read-out: AUClast): 2090 µg·h/mL | Cmax ([2]; male, Sprague-Dawley, plasma, po, 250 mg/kg, rat PO 250 mg/kg, male, mean, read-out: Cmax): 144 µg/mL | Tmax ([2]; male, Sprague-Dawley, plasma, po, 250 mg/kg, rat PO 250 mg/kg, male, mean, read-out: Tmax): 5.33 h | AUC(0-t) ([2]; male, Sprague-Dawley, plasma, po, 250 mg/kg, Male, PO/250 mg/kg, Mean ± SD, read-out: AUC0-24): 2090 µg·h/mL | Cmax ([2]; male, Sprague-Dawley, plasma, po, 250 mg/kg, Male, PO/250 mg/kg, Mean ± SD, read-out: Cmax): 144 µg/mL | Tmax ([2]; male, Sprague-Dawley, plasma, po, 250 mg/kg, Male, PO/250 mg/kg, Mean ± SD, read-out: Tmax): 5.3 ± 1.1 h | AUClast/D ([2]; rat PO 25 mg/kg, female, mean): 37897 | AUC—% Extrap—obs ([2]; rat PO 25 mg/kg, female, mean): 9% | AUClast/D ([2]; rat PO 25 mg/kg, male, mean): 14077 | AUC—% Extrap—obs ([2]; rat PO 25 mg/kg, male, mean): 1.28% | AUClast/D ([2]; rat PO 75 mg/kg, female, mean): 33882 | AUC—% Extrap—obs ([2]; rat PO 75 mg/kg, female, mean): 18.5% | AUClast/D ([2]; rat PO 75 mg/kg, male, mean): 12078 | AUC—% Extrap—obs ([2]; rat PO 75 mg/kg, male, mean): 0.473% | AUClast/D ([2]; rat PO 250 mg/kg, female, mean): 17869 | AUC—% Extrap—obs ([2]; rat PO 250 mg/kg, female, mean): 59.9% | AUClast/D ([2]; rat PO 250 mg/kg, male, mean): 8340 | AUC—% Extrap—obs ([2]; rat PO 250 mg/kg, male, mean): 26.5% | AUC0-24 salt/ AUC0-24 free/ ([2]; Female, PO/20 mg/kg): 1.07 | AUC0-24 [2, 9]: 947,000 ± 135,000 ng h/mL | Cmax [2, 9]: 68,600 ± 6400 ng/mL | AUC0-24 salt/ AUC0-24 free/ ([2]; Female, PO/60 mg/kg): 1.78 | AUC0-24 [2, 10]: 2,540,000 ± 503,000 ng h/mL | Cmax [2, 10]: 171,000 ± 11,600 ng/mL | AUC0-24 salt/ AUC0-24 free/ ([2]; Female, PO/200 mg/kg): 1.57 | AUC0-24 [2, 11]: 4,470,000 ± 705,000 ng h/mL | Cmax [2, 11]: 223,000 ± 29,900 ng/mL | Tmax [2, 11]: 6.7 ± 1.1 h | AUC0-24 salt/ AUC0-24 free/ ([2]; Male, PO/25 mg/kg): 2.11 | AUC0-24 salt/ AUC0-24 free/ ([2]; Male, PO/75 mg/kg): 2.03 | AUC0-24 salt/ AUC0-24 free/ ([2]; Male, PO/250 mg/kg): 1.89
